These are literature values, as cited in US20260102333A1, “TOPICAL DELIVERY OF ANTIFUNGAL AGENTS FOR TREATING FUNGAL INFECTIONS” (LYOTROPIC DELIVERY SYSTEMS LTD., priority 2022, published 2026).

The subject of data set [1] is Trichophyton mentagrophytes.

Where a name gives a salt, the structure may show the parent alone.

Turning to `CN(C/C=C/C#CC(C)(C)C)Cc1cccc2ccccc12` [TRB, terbinafine hydrochloride], the “MIC50 (minimum inhibitory concentration required for 50% inhibition)” value (in the data set on Trichophyton rubrum; in data set [1]) was 0.03 to 0.5 µg/mL throughout.
